Measured values from patent US5989875A, “Method of process for producing L-lysine by fermentation” (priority 1995, dated 1999).
In brackets after ≈: the same amount, converted by molar mass.

Key:
[1] = test system: GT3/pLYSC1 strain; assay: Growth of GT3/pLYSC1 on M9 media containing L-lysine or AEC; format: cell-based, E. coli; details: for Growth of GT3/pLYSC1: M9 agar
Procedure: (§1) A transformed strain obtained by introducing pLYSC1 into the AK completely deficient strain, E. coli GT3 was designated as GT3/pLYSC1, and a transformed strain obtained by introducing pLYSC2 into the E. coli GT3 was designated as GT3/pLYSC2. A considerable amount of L-lysine was added to the minimal medium M9, and the GT3/pLYSC1 strain and the GT3/pLYSC2 strain were each cultivated. Both of the GT3/pLYSC1 strain and the GT3/pLYSC2 strain harbor plasmids containing the wild type lysC, in which AKIII encoded by lysC on the plasmids is a sole AK. The wild type AKIII as the sole AK is inhibited by L-lysine in the presence of a considerable amount of L-lysine.
(§2) The GT3/pLYSC1 strain and the GT3/pLYSC2 strain were cultivated on M9 agar plate media containing various concentrations of L-lysine or AEC, respectively. Growth inhibitory concentrations by L-lysine and AEC were examined, and a selection condition was investigated for a strain harboring a plasmid containing lysC*.
(§3) In this table, + indicates growth of transformant, ± indicates a little growth, and - indicates no growth.

[2] = target: T1, AKIII (Escherichia coli, UniProt P08660); assay: Enzyme activity of AKIII and inhibition by L-lysine (cell-free extract); format: biochemical, E. coli
T1 construct: made in house; host or cells: E. coli GT3 (AKI, II, III deficient) transformed with pLYSC1 or its mutant plasmids; cell-free extract, ammonium sulfate pellet redissolved
From the text: No. 24, No. 43, No. 48, No. 60, No. 80, No. 117, No. 126, No. 149, No. 150, No. 156, No. 158, No. 167, No. 169 and No. 172 were selected as representative strains of the aforementioned 14 groups. Mutant plasmids derived from pLYSC1 were recovered from each of them, and designated as pLYSC1*24, pLYSC1*43, pLYSC1*48, pLYSC1*60, pLYSC1*80, pLYSC1*117, pLYSC1*126, pLYSC1*149, pLYSC1*150, pLYSC1*156, pLYSC1*158, pLYSC1*167, pLYSC1*169 and pLYSC1*172, respectively. An AK completely deficient strain GT3 was transformed with them and the wild type pLYSC1. A cell-free extract was prepared from each of transformed strains, and the enzyme activity of AKIII was measured.
The cell-free extract (crude enzyme solution) was prepared as follows. A transformed strain was cultivated in a 2 x TY medium, and collected at an OD660 of about 0.8. Cells were washed with 0.02 M KH2 PO4 (pH 6.75)-0.03 M β-mercaptoethanol under a condition of 0° C., and the cells were disrupted by sonication (0° C., 100 W, 30 minutes×4). A disrupted cell solution was centrifuged at 33 krpm for 1 hour under a condition of 0° C. to obtain a supernatant to which ammonium sulfate was added to give 80% saturation. After centrifugation, a pellet was dissolved in 0.02 M KH2 PO4 (pH 6.75)-0.03 M β-mercaptoethanol, and stored at 0° C. overnight.
The enzyme activity of AKIII was measured in accordance with a method of Stadtman et al. (Stadtman, E. R., Cohen, G. N., LeBras, G., and Robichon-Szulmajster, H., J. Biol. Chem., 236, 2033 (1961)). Namely, a reaction solution having the following composition was incubated at 27° C. for 45 minutes, and an FeCl3 solution (2.8 N HCl 0.4 ml+12% TCA 0.4 ml+5% FeCl3 ·6H2 O/0.1 N HCl 0.7 ml) was added thereto to develop a color, and it was centrifuged followed by measurement of absorbance of a supernatant at 540 nm. The activity was indicated by an amount of hydroxamic acid generated per minute (1 U=1 μmol/min). The molar absorption coefficient was 600. Potassium aspartate was removed from the reaction solution to be used as a blank.
In measurement of the enzyme activity of AK, various concentrations of L-lysine were added to the enzyme reaction solution and the degree of inhibition by L-lysine was examined.
On the contrary, although the mutant AKIII's obtained this time had various degrees of desensitization, inhibition by L-lysine was desensitized in all of 14 species. […] The specific activity based on total protein, which might be affected by growth situations of cell and preparation of samples, was equal to or more than that of the wild type in almost all cases, and there was little problem of decrease in activity due to the introduction of mutation (Table 3). According to this fact, it was expected that an active center of AKIII was independent from a regulatory site by L-lysine with each other. In Table 3, the inhibition desensitization degree (%) refers to an AK activity in the presence of 100 mM of L-lysine compared with an AK activity in the absence of L-lysine in the reaction solution. The heat stability (%) refers to a ratio of activity maintenance after a treatment at 55° C. for 1.5 hour.

[3] = test system: GT3/pLYSC2 strain; assay: Growth of GT3/pLYSC2 on M9 media containing L-lysine or AEC; format: cell-based, E. coli
Procedure: as §1, §2, §3

[4] = test system: DDPS; assay: Enzyme activity of DDPS and inhibition by L-lysine (cell-free extract); format: biochemical, E. coli; details: for Inhibition of DDPS by L-lysine: various concentrations of L-lysine added, FIG. 2
Procedure: Mutant pdapA2's were recovered from the 36 strains described above. A dapA-deficient strain, JE7627 was transformed with them and the wild type pdapA2, respectively. A cell-free extract was prepared from each of the transformed strains, and the enzyme activity of DDPS was measured.
The cell-free extract (crude enzyme solution) was prepared as follows. A transformed strain was cultivated in a 2 x TY medium (1.6% Bacto trypton, 1% Yeast extract, 0.5% NaCl), and collected at an optical density at 660 nm (OD660) of about 0.8. A cell pellet was washed with 0.85% NaCl under a condition of 0° C., and suspended in 20 mM potassium phosphate buffer (pH 7.5) containing 400 mM KCl. The cells were disrupted by sonication (0° C., 200 W, 10 minutes). A disrupted cell solution was centrifuged at 33 krpm for 1 hour under a condition of 0° C. to obtain a supernatant to which ammonium sulfate was added to give 80% saturation to be stored at 0° C. overnight followed by centrifugation. A pellet was dissolved in 20 mM potassium phosphate buffer (pH 7.5)-400 mM KCl.
The enzyme activity of DDPS was measured in accordance with a method of Yugari et al. (Yugari, Y. and Gilvarg, C., J. Biol. Chem., 240, 4710 ([…])). Namely, the absorbance of a reaction solution having the following composition was measured at 37° C. with a spectrophotometer at a wavelength of 270 nm in a time-course manner, and generated dihydrodipicolinate was measured. Sodium pyruvate was removed from the reaction system to be used as a blank.
In measurement of the enzyme activity of DDPS, various concentrations of L-lysine were added to the enzyme reaction solutionand the degree of inhibition by L-lysine was examined.

T1 sequence (P08660 2-449): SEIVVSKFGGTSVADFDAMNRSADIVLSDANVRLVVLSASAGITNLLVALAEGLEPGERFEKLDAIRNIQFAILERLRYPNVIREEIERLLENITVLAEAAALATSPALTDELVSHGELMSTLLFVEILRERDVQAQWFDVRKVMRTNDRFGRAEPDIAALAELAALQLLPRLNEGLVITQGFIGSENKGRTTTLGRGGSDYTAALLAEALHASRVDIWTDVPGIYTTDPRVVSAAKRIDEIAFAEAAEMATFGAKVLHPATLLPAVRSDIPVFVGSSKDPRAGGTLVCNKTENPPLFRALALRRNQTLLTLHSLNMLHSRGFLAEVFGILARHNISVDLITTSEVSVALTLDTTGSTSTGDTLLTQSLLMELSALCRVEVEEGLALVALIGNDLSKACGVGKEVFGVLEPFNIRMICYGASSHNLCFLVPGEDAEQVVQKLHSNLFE

Molecule: NCCCC[C@H](N)C(=O)O [L-lysine]
- MIC ([1]; Escherichia coli, GT3, read-out: Allotment of addition in which growth was completely suppressed): 200 µM (≈ 29.2 µg/mL)
- Growth in minimal medium M9 with a considerable amount of L-lysine ([1]; GT3/pLYSC1): suppressed in growth
- Growth of GT3/pLYSC1 ([1]; L-lysine 0.2 mM): -
- Growth of GT3/pLYSC1 ([1]; L-lysine 0.4 mM): -
- Growth of GT3/pLYSC1 ([1]; L-lysine 0.8 mM): -
- Growth of GT3/pLYSC1 ([1]; L-lysine 1.5 mM): -
- Growth of GT3/pLYSC1 ([1]; L-lysine 3 mM): -
- Growth of GT3/pLYSC1 ([1]; L-lysine 6 mM): -
- Growth of GT3/pLYSC1 ([1]; L-lysine 12 mM): -
- Growth of GT3/pLYSC1 ([1]; L-lysine 25 mM): -
- Growth of GT3/pLYSC1 ([1]; L-lysine 50 mM): -
- Growth of GT3/pLYSC1 ([1]; L-lysine 100 mM): -
- Growth of GT3/pLYSC1 ([1]; L-lysine 200 mM): -
- IC50 [2]: ~450 µM
- inhibition at 5000 µM ([2]; read-out: Inhibition of AKIII): ~100%
- Growth in minimal medium M9 with a considerable amount of L-lysine ([3]; GT3/pLYSC2): suppressed in growth
- Allotment of addition up to which growth was not suppressed ([3]; GT3/pLYSC2 strain, M9 agar): 100 mM
- Growth of GT3/pLYSC2 ([3]; M9 agar, L-lysine 0.2 mM): +
- Growth of GT3/pLYSC2 ([3]; M9 agar, L-lysine 0.4 mM): +
- Growth of GT3/pLYSC2 ([3]; M9 agar, L-lysine 0.8 mM): +
- Growth of GT3/pLYSC2 ([3]; M9 agar, L-lysine 1.5 mM): +
- Growth of GT3/pLYSC2 ([3]; M9 agar, L-lysine 3 mM): +
- Growth of GT3/pLYSC2 ([3]; M9 agar, L-lysine 6 mM): +
- Growth of GT3/pLYSC2 ([3]; M9 agar, L-lysine 12 mM): +
- Growth of GT3/pLYSC2 ([3]; M9 agar, L-lysine 25 mM): +
- Growth of GT3/pLYSC2 ([3]; M9 agar, L-lysine 50 mM): +
- Growth of GT3/pLYSC2 ([3]; M9 agar, L-lysine 100 mM): ±
- Growth of GT3/pLYSC2 ([3]; M9 agar, L-lysine 200 mM): -

B1: wild type DDPS: wild type dihydrodipicolinate synthase of E. coli, SEQ ID NO:4 (protein)
chain: MFTGSIVAIVTPMDEKGNVCRASLKKLIDYHVASGTSAIVSVGTTGESATLNHDEHADVVMMTLDLADGRIPVIAGTGANATAEAISLTQRFNDSGIVGCLTVTPYYNRPSQEGLYQHFKAIAEHTDLPQILYNVPSRTGCDLLPETVGRLAKVKNIIGIKEATGNLTRVNQIKELVSDDFVLLSGDDASALDFMQLGGHGVISVTTNVAARDMAQMCKLAAEEHFAEARVINQRLMPLHNKLFVEPNPIPVKWACKELGLVATDTLRLPMTPITDSGRETVRAALKHAGLL
- Inhibition of DDPS by L-lysine [4]: suffered inhibition by L-lysine

B2: pdapAS24 (protein)
chain: MFTGSIVAIVTPMDEKGNVCRASLKKLIDYHVASGTSAIVSVGTTGESATLNHDEHADVVMMTLDLADGRIPVIAGTGANATAEAISLTQRFNDSGIVGCLTVTPYYNRPSQEGLYQYFKAIAEHTDLPQILYNVPSRTGCDLLPETVGRLAKVKNIIGIKEATGNLTRVNQIKELVSDDFVLLSGDDASALDFMQLGGHGVISVTTNVAARDMAQMCKLAAEEHFAEARVINQRLMPLHNKLFVEPNPIPVKWACKELGLVATDTLRLPMTPITDSGRETVRAALKHAGLL
- Specific activity of DDPS as compared with the wild type ([4]; cell-free extract of JE7627 transformants): lowered a little
- Inhibition of DDPS by L-lysine [4]: desensitized
